These results are taken from patent US20080051332A1, “METHOD OF MODULATING HEMATOPOIETIC STEM CELLS AND TREATING HEMATOLOGIC DISEASES USING INTRANASAL PARATHYROID HORMONE” (Nastech Pharmaceutical Company Inc., priority 2005, published 2008).

“Also recorded” adds a separate entry of the source. Where two headings read alike, the source gives them in different places. Ends that are not written are not given here.

Series [1] concerns ciliary motility. Conditions: pyo compound without obvious ultrastructural lesions; phenazine derivative with some membrane disruption; cited from earlier work.
Series [2] relates to Human chondrocytes. The experiment in a line: Alginate-based cartilage growth model, type II collagen production. The class given is cell-based. The protocol: Next, the alginate-based cell system (cartilage growth model) was used to determine whether PTH dosing could stimulate chondrocytes to produce cartilage. […] Type II collagen is a major component of the extracellular matrix of nasal cartilage and therefore was used as a molecular marker for cartilage growth in this assay.
The cell-containing alginate beads were incubated in the presence of various test solutions for 12 days at 37° C., 5% CO2. After the incubation, the alginate beads were processed using an extraction method in order to quantify the production of type II collagen.
The effect of PTH on Type II collagen production was studied. The positive control in this study was re-differentiation media and the negative control was growth media. PTH was tested in a range of 20 μg to 200 μg as FORSTEO or a formulation containing the formulation enhancers (sample 1, above).
In addition, type II collagen production was assessed in the presence of a formulation containing 5 μg of insulin-like growth factor I (IGF-I). IGF-I is known to be a potent promoter of cartilage type-II collagen expression in chondrocytes and thus is an ideal positive control for the assay.

For series [3] the following is noted: 100 μg/day by injection, preliminary results; cited from earlier work.
Series [4] concerns human chondrocyte cell monolayer. The series is described as follows: Human chondrocyte monolayer proliferation (MTT). The following applies: MTT at t=0 and after 4 days at 37° C./5% CO2. The format is cell-based. An excerpt:
A human chondrocyte cell monolayer model was employed to examine cell proliferation in the presence of PTH in a simple formulation (FORSTEO) or a formulation containing PTH and the formulation enhancers (sample 1, above). These were compared to a positive control (media containing antibiotics, insulin, TGF-beta and IGF-1) and negative control (media devoid of any cell growth components). It was desired to understand if the presence of PTH could stimulate chondrocyte growth. To this end, the above mentioned formulations and controls were applied to the apical side of the chondrocyte monolayers, and the MTT assay (Example 3) was conducted at t=0 and then after 4 days incubation at 37° C./5% CO2.

Series [5] relates to hematopoietic stem cells. Conditions: mice, Calvi et al. 2003; cited from earlier work.
Series [6] relates to normal, human-derived tracheal/bronchial epithelial cells (EpiAirway™ Tissue Model). The class given is in vitro ADME. The protocol:
(§1) The effect of various “Generally Regarded As Safe” (GRAS) permeation enhancers was measured in a MatTek cell model. Three GRAS permeation enhancers (EDTA, ethanol, Tween 80) were evaluated individually or in combination with one another. Sorbitol was used as a tonicifier to adjust the osmolarity of formulations to 220 mOsm/kg whenever applicable. The formulation pH was adjusted to 4. The permeation enhancer combination of 45 mg/ml M-β-CD, 1 mg/ml DDPC, and 1 mg/ml EDTA at pH 4.5 served as the positive control. The formulation contains sorbitol only was used as the negative control. Each formulation is evaluated in the presence and absence of preservative. For all formulations, sodium benzoate is used as the preservative.
(§2) The cell line MatTek Corp. (Ashland, Mass.) are normal, human-derived tracheal/bronchial epithelial cells (EpiAirway™ Tissue Model). Cells are cultured for 24-48 hours before use to produce a tissue insert.
Each tissue insert is placed in an individual well containing 1 ml media. On the apical surface of the inserts, 100 μl of test formulation is applied, and the sample is shaken for 1 h at 37° C. […] Transepithelial electrical resistance (TER) is measured before and after the 1-h incubation. Following the incubation, the cell inserts are analyzed for cell viability via the mitochondrial dehydrogenase (MDH) assay. […]

The conditions of series [7]: after feeding to rats; cited from earlier work.
Series [8] has as its system normal, human-derived tracheal/bronchial epithelial cells (EpiAirway™ Tissue Model). The experiment in a line: Cell viability, MTT assay, EpiAirway tissue inserts. The class given is cell-based. The following applies: after 1 h incubation with formulation. How it is done:
as §1, §2
(§3) Each tissue insert is placed in an individual well containing 1 ml media. […] Transepithelial electrical resistance (TER) is measured before and after the 1-h incubation. Following the incubation, the cell inserts are analyzed for cell viability via the mitochondrial dehydrogenase (MDH) assay.
Cell viability is assessed using the MTT assay (MTT-100, MatTek kit). […] The optical density of the samples was measured at 550 nm on a plate reader.
In general terms: Tetrazolium assays rely on reduction of a dye to a coloured formazan, in cell work by metabolically active cells.

For series [9] the test system is unchanged. The experiment in a line: Transepithelial electrical resistance (TER) in MatTek EpiAirway tissue model. The format is cell-based. The following applies: 100 μl formulation on apical surface, 1 h at 37° C., TER before and after. How it is done: The effect of various “Generally Regarded As Safe” (GRAS) permeation enhancers was measured in a MatTek cell model. Three GRAS permeation enhancers (EDTA, ethanol, Tween 80) were evaluated individually or in combination with one another. Sorbitol was used as a tonicifier to adjust the osmolarity of formulations to 220 mOsm/kg whenever applicable. The formulation pH was adjusted to 4. The permeation enhancer combination of 45 mg/ml M-β-CD, 1 mg/ml DDPC, and 1 mg/ml EDTA at pH 4.5 served as the positive control. The formulation contains sorbitol only was used as the negative control. Each formulation is evaluated in the presence and absence of preservative. […]
as §3
TER measurements are accomplished using the Endohm-12 Tissue Resistance Measurement Chamber connected to the EVOM Epithelial Volt-ohmmeter (World Precision Instruments, Sarasota, Fla.) with the electrode leads. […] The background resistance is measured with 1.5 ml Media in the Endohm tissue chamber and 300 μl Media in the blank insert. […] Resistance is expressed as (resistance measured−blank)×0.6 cm^2. […]

The test system is the same in series [10]. The series is described as follows: Cytotoxicity, LDH assay, EpiAirway tissue inserts. The class given is cell-based. The following applies: after 1 h incubation with formulation. How it is done:
The effect of various “Generally Regarded As Safe” (GRAS) permeation enhancers was measured in a MatTek cell model. Three GRAS permeation enhancers (EDTA, ethanol, Tween 80) were evaluated individually or in combination with one another. Sorbitol was used as a tonicifier to adjust the osmolarity of formulations to 220 mOsm/kg whenever applicable. The formulation pH was adjusted to 4. The permeation enhancer combination of 45 mg/ml M-β-CD, 1 mg/ml DDPC, and 1 mg/ml EDTA at pH 4.5 served as the positive control. The formulation contains sorbitol only was used as the negative control. Each formulation is evaluated in the presence and absence of preservative. For all formulations, sodium benzoate is used as the preservative. […]
as §3
The amount of cell death is assayed by measuring the loss of lactate dehydrogenase (LDH) from the cells using a CytoTox 96 Cytoxicity Assay Kit (Promega Corp., Madison, Wis.). LDH analysis of the apical media is evaluated. […] Following incubation, 50 μl of stop solution is added to each well and the plates read on an optical density plate reader at 490 nm.

The conditions of series [11]: anesthetized rats, cited from earlier work.

Take “2-alkyl-4-hydroxyquinolines [pyo compound]”: the “concentration producing ciliostasis / inhibiting ciliary motility” value in series [1] was 50 µg/mL.

Take `CC[C@H](C)[C@H](NC(=O)[C@H](CCC(=O)O)NC(=O)[C@H](CO)NC(=O)[C@@H](NC(=O)[C@@H](N)CO)C(C)C)C(=O)N[C@@H](CCC(N)=O)C(=O)N[C@@H](CC(C)C)C(=O)N[C@@H](CCSC)C(=O)N[C@@H](Cc1cnc[nH]1)C(=O)N[C@@H](CC(N)=O)C(=O)N[C@@H](CC(C)C)C(=O)NCC(=O)N[C@@H](CCCCN)C(=O)N[C@@H](Cc1cnc[nH]1)C(=O)N[C@@H](CC(C)C)C(=O)N[C@@H](CC(N)=O)C(=O)N[C@@H](CO)C(=O)N[C@@H](CCSC)C(=O)N[C@@H](CCC(=O)O)C(=O)N[C@@H](CCCN=C(N)N)C(=O)N[C@H](C(=O)N[C@@H](CCC(=O)O)C(=O)N[C@@H](Cc1c[nH]c2ccccc12)C(=O)N[C@@H](CC(C)C)C(=O)N[C@@H](CCCN=C(N)N)C(=O)N[C@@H](CCCCN)C(=O)N[C@@H](CCCCN)C(=O)N[C@@H](CC(C)C)C(=O)N[C@@H](CCC(N)=O)C(=O)N[C@@H](CC(=O)O)C(=O)N[C@H](C(=O)N[C@@H](Cc1cnc[nH]1)C(=O)N[C@@H](CC(N)=O)C(=O)N[C@@H](Cc1ccccc1)C(=O)O)C(C)C)C(C)C` [Teriparatide, teriparatide]: the “type II collagen production” value was “did not induce a substantial production of type II collagen” in series [2] (20 μg of PTH, citrate buffer or with permeation enhancers, 12 days); “a significant increase in type II collagen was observed; also recorded: modest amounts of type II collagen production” in [2] (high concentration of PTH (200 μg) in a simple formulation, 12 days, listed as PTH); “essentially no production of type II collagen; also recorded: did not induce any cartilage growth” in [2] (high concentration of PTH in the presence of permeation enhancers, 12 days, listed as PTH). In addition, the “success rates in bone marrow transplant patients” value in series [3] is given as “improves success rates”. Also, the chondrocyte proliferation entry in series [4] was “does not promote growth of chondrocytes”. Besides, the “number of functional HSCs and survival after bone marrow transplantation” value in [5] was “increases the number of functional HSCs and survival after bone marrow transplantation”. Besides, the “impact of preservative on Teriparatide permeation” value in series [6] is on record as “no significant impact”.

Turning to Phaseolus vulgaris hemagglutinin, in [7], the oral bioavailability entry is given as “more than 10%”.

Consider Triton X, for which, in series [8], the “cell viability (MTT assay)” value is listed as “significant reduction of cell viability”. In addition, the TER reduction result in series [9] was “significant TER reduction”. The “cytotoxicity (LDH assay)” value in series [10] is “significant cytotoxicity”.

For “calcitonin (CGNLSTCMLGTYTQDFNKFHTFPQTAIGVGAP; ends and bridges not checked; cysteine pairing not given here; UniProt P01258 85-116, looked up)”, the “type II collagen production” value in series [2] (20 μg or 200 μg calcitonin) is given as “no effect”.

human growth hormone: the nasal bioavailability is given as 12.2% in [11] (with N-acetyl-L-cysteine (ACS)) and 7.5% in [11] (without N-acetyl-L-cysteine).

Consider insulin-like growth factor I [IGF-I], for which, in series [2] (5 μg IGF-I, positive control), the “type II collagen production” value is reported as “greater than 1.2 pg per culture”.
